Read-outs that look alike come from different tables or passages of the source.
How the values were obtained:
[1] = Lipophilicity LogDpH=7.4, shake flask method; assay type: physicochemical; conditions: PBS (pH = 7.4)/n-octanol, mean of n = 8
Method: The LogDpH=7.4 was determined using a modified shake flask method as previously described.

[2] = biological target: T1, human serum albumin (HSA) (Homo sapiens, UniProt P02768); test: HSA binding by high performance affinity chromatography (HPAC); assay type: in vitro ADME
T1 construct: purchased H13H-2433
T1 sequence (P02768 25-609): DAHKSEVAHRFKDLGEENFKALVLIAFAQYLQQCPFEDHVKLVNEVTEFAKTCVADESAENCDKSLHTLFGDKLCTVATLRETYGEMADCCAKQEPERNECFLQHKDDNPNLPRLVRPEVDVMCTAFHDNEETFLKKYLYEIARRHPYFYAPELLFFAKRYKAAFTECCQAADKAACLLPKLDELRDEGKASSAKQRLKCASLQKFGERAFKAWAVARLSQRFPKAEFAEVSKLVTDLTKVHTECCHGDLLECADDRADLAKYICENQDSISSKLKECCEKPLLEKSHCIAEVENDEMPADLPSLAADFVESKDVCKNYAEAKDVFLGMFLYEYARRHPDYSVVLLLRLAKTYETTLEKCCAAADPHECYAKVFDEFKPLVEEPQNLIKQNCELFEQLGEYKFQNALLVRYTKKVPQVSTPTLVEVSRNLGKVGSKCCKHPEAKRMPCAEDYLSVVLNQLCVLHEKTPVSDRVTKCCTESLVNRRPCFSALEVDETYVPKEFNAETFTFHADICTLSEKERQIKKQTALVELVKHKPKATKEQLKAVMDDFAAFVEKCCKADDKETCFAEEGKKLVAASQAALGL
Method: For the determination of binding to human serum albumin (HSA) using HPLC, a Chiralpak HSA column (50 × 3 mm, 5 μm, H13H-2433) was used at a constant flow rate of 0.5 ml/min. The mobile phase (A: NH4OAc, 50 mM in H2O, pH 6.9 and B: iPrOH) was freshly prepared for each day.

AR42J cells = test: Internalization into AR42J cells relative to [125I]TOC; assay type: cell-based; conditions: percentage compared to internal reference [125I]TOC
Method: AR42J cells (European Collection of Cell Cultures, Salisbury, UK) were grown in RPMI 1640 medium (with 2 mM, L-Glu, 10% FCS; v/v, 37 °C, 5% CO2), harvested 24 ± 2 h and seeded in 24-well poly-L-lysine plates (2.0 × 10^5 cells/well in 1 ml culture medium). After removal of the medium, the cells were washed with assay medium (300 µl, RPMI 1640 with 2 mM L-Glu, 5% BSA; v/v) and incubated in assay medium (200 µl, 15 min, 37 °C, 5% CO2). 25 µl of the ^18F-labeled ligand (20 nM) and [^125I]TOC (1 nM) in assay medium were added followed by either 25 µl TOC in assay medium (100 µM, competition experiment) or 25 µl of assay medium (internalization experiment). Cells were incubated at 37 °C for 15, 30, and 60 min (n = 3 per compound and time point), respectively, and chilled on ice. The supernatant was collected, the well washed with ice-cold RPMI 1640 (300 µl), and the two fractions combined (unbound ligand). The cells were incubated with acid wash solution (300 µl, 0.9% NaCl, 50 mM NaOAc/AcOH buffer, pH = 4.6, 15 min, 4 °C) to remove receptor-bound radioligand. The supernatant was collected, and the cells washed with 300 µl ice-cold acid wash solution (combined fractions: acid releasable, receptor bound ligand). The cells were lysed with NaOH solution (300 µl, 1 M, 15 min, RT), washed with 300 µl of the same solution, the two fractions combined (internalized ligand), and all activities quantified using a γ-counter.

[3] = Biodistribution 1 h p.i. in AR42J xenograft bearing CD1 nu/nu mice; assay type: in vivo; conditions: female, mouse, intravenous, total radioactivity, average ± Stdev
Method: (§1) The 8-week-old female CD1 nu/nu mice were purchased from Charles River (Sulzfeld, Germany). Animal experiments were conducted according to general animal welfare regulations (German animal protection act, as amended on 18.05.2018, Art. 141 G v. 29.3.2017 I 626, approval no. 55.2-1.2-54–2532-71-13 by the General Administration of the Free State of Bavaria; Swiss animal welfare regulations: Animal Welfare Act SR 455, license: Canton de Vaud, 3781 d). To establish tumor xenografts, AR42J cells (5 × 10^6 cells in 100 µl serum-free culture medium) were inoculated subcutaneously onto the shoulder. Mice were used for experiments when tumors had grown to a diameter of 5–9 mm (7–15 days after inoculation).
Approximately 0.5–2.5 MBq (0.05–0.20 nmol) of the ^18F-labeled ligands were injected into the tail vein of AR42J xenograft-bearing mice under isoflurane anesthesia (1.5% alveolar concentration). The mice were sacrificed 1 h post injection (n = 3–5). Organs were removed, weighed, and the activity quantified (γ-counter).
An unpaired Welch’s t-test was applied using the GraphPad Prism software (version 10.1.2). Standard deviations for tumor-to-organ (T/O) ratios were calculated using the rules of error propagation. Thresholds for statistical significance are defined as: p > 0.05 (ns); p ≤ 0.05 (*); p ≤ 0.01 (**); p ≤ 0.001 (***); p ≤ 0.0001 (****).

SST2 (AR42J tumor) = biological target: T2, SST2 (AR42J tumor) (Rattus norvegicus, UniProt P30680); test: µPET/CT imaging with and without octreotide blocking in AR42J tumor bearing mice; assay type: in vivo; conditions: 60 min p.i.
T2 construct: endogenous in cells; host or cells: AR42J xenograft in CD1 nu/nu mice
T2 sequence (P30680 whole entry): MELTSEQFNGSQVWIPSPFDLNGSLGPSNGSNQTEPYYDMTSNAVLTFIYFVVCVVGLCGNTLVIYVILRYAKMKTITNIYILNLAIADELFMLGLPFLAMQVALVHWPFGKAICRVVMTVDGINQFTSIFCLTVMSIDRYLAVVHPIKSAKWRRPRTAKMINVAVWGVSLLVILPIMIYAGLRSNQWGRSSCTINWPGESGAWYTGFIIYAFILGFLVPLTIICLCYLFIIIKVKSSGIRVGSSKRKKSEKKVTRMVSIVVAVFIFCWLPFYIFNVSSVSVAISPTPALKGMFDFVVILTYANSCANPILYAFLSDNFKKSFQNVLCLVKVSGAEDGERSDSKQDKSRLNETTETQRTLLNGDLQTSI
Method: as §1
4–5 MBq (0.3–0.5 nmol) of the ^68Ga-labeled SST2-ligand were injected into the tail vein of the xenograft-bearing mice. After 1 h, the mice were anesthetized (isoflurane: 1.5% alveolar concentration) and a PET image acquired (20 min, 32 × 32, 0.5 mm) using an Albira PET/SPECT/CT (Bruker Biospin Corporation, Woodbridge, CT, USA) followed by a CT scan (10 min). For blocking, 20 µg octreotide (0.8 mg/kg) were co-injected with the tracer. The images were reconstructed (Albira reconstructor, version NMI3.3) and analyzed (PMOD, V6.3.4, Bruker).

[4] = In-vitro stability in PBS, human serum and mouse liver extract; assay type: in vitro ADME; conditions: 1 h, 37 °C, radio RP-HPLC
Method: [^natF][^68Ga]rhTATE (ca. 5 MBq) was added to 500 µl samples of mouse liver extract, human serum, or PBS, respectively. The mixtures were incubated at 37 °C for 60 min. Workup of blood and liver extract samples was performed using cartridge purification (StrataX cartridge, 33 μm Polymeric Reversed Phase, 500 mg; preconditioning: 500 µl MeOH, 5 ml H2O; washing: 3 ml H2O; elution: ACN/H2O (0.1% TFA, 1:3, v/v, 300 µl). The resulting eluates were analyzed using radio RP-HPLC (Chromolith^R RP-18e; 100 × 4.6 mm; Merck KGaA; gradient of 10–90% ACN in H2O (0.1% TFA) within 8 min; flow rate: 1 ml/min). For cross-validation of HPLC results, radio RP-TLC was equally performed for all samples (1 M citric acid/NaOH, pH = 5.0; Rf: Product: 0.0–0.2.0.2; ^68Ga: 0.8–1.0.8.0).

[5] = parameters: method as in PMID 10774879; conditions: PBS (pH = 7.4)/n-octanol; cited from earlier work
[6] = co-injection of 20 µg octreotide (0.8 mg/kg)

With `C[C@@H](O)[C@H](NC(=O)[C@@H]1CSSC[C@H](NC(=O)[C@@H](Cc2ccccc2)NC(=O)CN2CCN(CC(=O)O)CCN(CC(=O)NCCCC[C@@H](NC(=O)[C@@H](CNC(=O)C[N+](C)(C)Cc3ccc([Si](F)(C(C)(C)C)C(C)(C)C)cc3)NC(=O)[C@@H](CCC(=O)O)NC(=O)[C@@H](CCC(=O)O)NC(=O)[C@H](N)CCC(=O)O)C(=O)O)CCN(CC(=O)O)CC2)C(=O)N[C@@H](Cc2ccc(O)cc2)C(=O)N[C@H](Cc2c[nH]c3ccccc23)C(=O)N[C@@H](CCCCN)C(=O)N[C@@H]([C@@H](C)O)C(=O)N1)C(=O)O` [[^18/natF][^natGa]rhTATE2.5, metal not drawn] the “LogDpH=7.4” value [1] was −2.30, the “HSA HPAC” value ([2]; affinity to HSA by affinity chromatography (Chiralpak HSA column)) was 84.8% and the Internalization (AR42J cells) was 357%. For the same molecule, the tissue uptake at 1 h ([3]; adrenal glands, AR42J tumor-bearing CD1 nu/nu mice, read-out: Biodistribution Adrenal Glands) was 1.52 ± 0.21 %ID/g, the tissue uptake at 1 h ([3]; blood, AR42J tumor-bearing CD1 nu/nu mice, read-out: Biodistribution Blood) was 0.32 ± 0.11 %ID/g and the tissue uptake at 1 h ([3]; femur, AR42J tumor-bearing CD1 nu/nu mice, read-out: Biodistribution Femur) was 1.05 ± 0.3 %ID/g. The tissue uptake at 1 h ([3]; heart, AR42J tumor-bearing CD1 nu/nu mice, read-out: Biodistribution Heart) was 0.18 ± 0.05 %ID/g, the tissue uptake at 1 h ([3]; intestine, AR42J tumor-bearing CD1 nu/nu mice, read-out: Biodistribution Intestine) was 1.3 ± 0.25 %ID/g and the tissue uptake at 1 h ([3]; kidney, AR42J tumor-bearing CD1 nu/nu mice, read-out: Biodistribution Kidney) was 12.5 ± 3.5 %ID/g. It also gave a tissue uptake at 1 h ([3]; liver, AR42J tumor-bearing CD1 nu/nu mice, read-out: Biodistribution Liver) of 0.4 ± 0.12 %ID/g, a tissue uptake at 1 h ([3]; lung, AR42J tumor-bearing CD1 nu/nu mice, read-out: Biodistribution Lung) of 2.73 ± 0.46 %ID/g and a tissue uptake at 1 h ([3]; muscle, AR42J tumor-bearing CD1 nu/nu mice, read-out: Biodistribution Muscle) of 0.04 ± 0.02 %ID/g. It also gave a tissue uptake at 1 h ([3]; pancreas, AR42J tumor-bearing CD1 nu/nu mice, read-out: Biodistribution Pancreas) of 11.5 ± 2.32 %ID/g, a tissue uptake at 1 h ([3]; spleen, AR42J tumor-bearing CD1 nu/nu mice, read-out: Biodistribution Spleen) of 0.35 ± 0.07 %ID/g and a tissue uptake at 1 h ([3]; stomach, AR42J tumor-bearing CD1 nu/nu mice, read-out: Biodistribution Stomach) of 6.46 ± 1 %ID/g. For the same molecule, the tissue uptake at 1 h ([3]; tumor (AR42J xenograft), AR42J xenograft, CD1 nu/nu mice, read-out: Biodistribution Tumor) was 18.6 ± 6.18 %ID/g, the “µPET kidney activity with SST2 blocking” value (SST2 (AR42J tumor); [6]) was “significantly reduced kidney activity” and the “µPET tumor signal with SST2 blocking” value (SST2 (AR42J tumor); [6]) was “no detectable tumor signal”. The “µPET uptake in the tumor and kidneys” value (SST2 (AR42J tumor); control mouse, 4 MBq, 0.5 nmol tracer/mouse) was “intense” and the in vitro stability [4] was “stable over 60 min”.
For `C[C@@H](O)[C@H](NC(=O)[C@@H]1CSSC[C@H](NC(=O)[C@@H](Cc2ccccc2)NC(=O)CN2CCN(CC(=O)O)CCN(CC(=O)O)CCN(CC(=O)O)CC2)C(=O)N[C@@H](Cc2ccc(O)cc2)C(=O)N[C@H](Cc2c[nH]c3ccccc23)C(=O)N[C@@H](CCCCN)C(=O)N[C@@H]([C@@H](C)O)C(=O)N1)C(=O)O` [[^nat/68Ga]DOTA-TATE, metal not drawn, reference compound], the “HSA HPAC” value [2] is given as 88.9%, the Internalization (AR42J cells) is given as 570% and the “LogDpH=7.4” value [5] is given as −3.69 [24].
